Assay results from patent US10167262B2, “Herbicidal substituted 3-arylpyrazoles” (FMC CORPORATION, priority 2014, dated 2019).
Like-named read-outs stand apart in the source and are kept apart here.

Assays:
Format in all cases: in vivo
[1] = system: barnyardgrass (Echinochloa crus-galli); experiment: Test A pre-/postemergence greenhouse herbicide test, visual injury rating 0-100; conditions: Echinochloa crus-galli, 240 h, 1000 g ai/ha, read-out: Plant response rating (0 to 100 scale), Barnyardgrass
How it was run: (§1)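 Test chemicals in a non-phytotoxic solvent/surfactant blend were sprayed onto loam–sand soil after planting (pre) and onto 2–10 cm seedlings at one to two leaves (post). Greenhouse hold approx. 10 days; injury then judged visually.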

corn (Zea mays) = experiment: as above; conditions: Zea mays, 240 h, 1000 g ai/ha, read-out: Plant response rating (0 to 100 scale), Corn
How it was run: as §1

[2] = system: giant foxtail (Setaria faberii); experiment: as above; conditions: Setaria faberi, 240 h, 1000 g ai/ha, read-out: Plant response rating (0 to 100 scale), Foxtail, Giant
How it was run: as §1

[3] = system: large (Lg) crabgrass (Digitaria sanguinalis); experiment: as above; conditions: Digitaria sanguinalis, 240 h, 1000 g ai/ha, read-out: Plant response rating (0 to 100 scale), Crabgrass, Large
How it was run: as §1

[4] = system: morningglory (Ipomoea spp.); experiment: as above; conditions: Ipomoea, 240 h, 1000 g ai/ha, read-out: Plant response rating (0 to 100 scale), Morningglory
How it was run: as §1

[5] = system: pigweed (Amaranthus retroflexus); experiment: as above; conditions: Amaranthus retroflexus, 240 h, 1000 g ai/ha, read-out: Plant response rating (0 to 100 scale), Pigweed
How it was run: as §1

[6] = system: velvetleaf (Abutilon theophrasti); experiment: as above; conditions: Abutilon theophrasti, 240 h, 1000 g ai/ha, read-out: Plant response rating (0 to 100 scale), Velvetleaf
How it was run: as §1

[7] = system: wheat (Triticum aestivum); experiment: as above; conditions: Triticum aestivum, 240 h, 1000 g ai/ha, read-out: Plant response rating (0 to 100 scale), Wheat
How it was run: as §1

[8] = system: Italian ryegrass (Lolium multiflorum); experiment: Test C pre-/postemergence greenhouse test, plant response rating 0-100; conditions: Lolium multiflorum; for pest or weed control at 62 g/ha: 62 g ai/ha; for pest or weed control at 125 g/ha: 125 g ai/ha; for pest or weed control at 250 g/ha: 250 g ai/ha
How it was run: (§2)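 Greenhouse test. Preemergence: seed in loam:sand, sprayed with formulated chemical (solvent + surfactant). Postemergence: 1–4 leaf plants, 2–18 cm, peat-based potting medium. Hold 13–15 d; score visually, 0 (none) to 100 (complete control); dash = not tested.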

[9] = system: galium (catchweed bedstraw, Galium aparine); experiment: as above; conditions: Galium; for pest or weed control at 31 g/ha: 31 g ai/ha; for pest or weed control at 62 g/ha: 62 g ai/ha; for pest or weed control at 125 g/ha: 125 g ai/ha; for pest or weed control at 250 g/ha: 250 g ai/ha
How it was run: as §2

[10] = system: large (Lg) crabgrass (Digitaria sanguinalis); experiment: as above; conditions: Digitaria sanguinalis; for pest or weed control at 31 g/ha: 31 g ai/ha; for pest or weed control at 62 g/ha: 62 g ai/ha; for pest or weed control at 125 g/ha: 125 g ai/ha; for pest or weed control at 250 g/ha: 250 g ai/ha
How it was run: as §2

[11] = system: ragweed (common ragweed, Ambrosia elatior); experiment: as above; conditions: Ambrosia artemisiifolia; for pest or weed control at 62 g/ha: 62 g ai/ha; for pest or weed control at 125 g/ha: 125 g ai/ha; for pest or weed control at 250 g/ha: 250 g ai/ha;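 as to all read-outs here: 0 is no effect and 100 is complete control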
How it was run: as §2

[12] = system: yellow nutsedge (Cyperus esculentus); experiment: as above; conditions: Cyperus; for pest or weed control at 62 g/ha: 62 g ai/ha; for pest or weed control at 125 g/ha: 125 g ai/ha; for pest or weed control at 250 g/ha: 250 g ai/ha
How it was run: as §2

[13] = post-emergence, Postemergence, read-out: Plant response rating (0 to 100), Ryegrass, Italian
[14] = post-emergence, Postemergence, scale 0 to 100
[15] = pre-emergence, Preemergence, read-out: Plant response rating, Ryegrass, Italian
[16] = pre-emergence, Preemergence, 500 g ai/ha
[17] = post-emergence, Postemergence, read-out: Plant response rating (0 to 100), Galium
[18] = pre-emergence, Preemergence, read-out: Plant response rating, Galium
[19] = post-emergence, Postemergence, read-out: Plant response rating (0 to 100), Crabgrass, Large
[20] = pre-emergence, Preemergence, read-out: Plant response rating, Crabgrass, Large
[21] = post-emergence, Postemergence, read-out: Plant response rating (0 to 100), Ragweed
[22] = post-emergence, Postemergence, read-out: Plant response rating (0 to 100), Nutsedge, Yellow
[23] = pre-emergence, Preemergence, read-out: Plant response rating, Nutsedge, Yellow
[24] = post-emergence, Postemergence, 16 g ai/ha

Question: For `Clc1cc(Cl)cc(-c2n[nH]cc2C(=NN2CCCC2)c2ccccc2)c1` [Compound 30, N-[[3-(3,5-dichlorophenyl)-1H-pyrazol-4-yl]phenylmethylene]-1-pyrrolidinamine], which pest or weed control at 1000 g/ha ([1]; post-emergence, Postemergence) is on record?
Answer: 0%

Question: What about the pest or weed control at 1000 g/ha ([1]; pre-emergence, Preemergence) of the same compound?
Answer: 0%

Question: And the plant injury at 1000 g/ha (corn (Zea mays); post-emergence, Postemergence)?
Answer: 0%

Question: And the plant injury at 1000 g/ha (corn (Zea mays); pre-emergence, Preemergence)?
Answer: 0%

Question: And the pest or weed control at 1000 g/ha ([2]; post-emergence, Postemergence)?
Answer: 0%

Question: What about the pest or weed control at 1000 g/ha ([2]; pre-emergence, Preemergence) of the same compound?
Answer: 0%

Question: What about the pest or weed control at 1000 g/ha ([3]; post-emergence, Postemergence) of the same compound?
Answer: 0%

Question: What about the pest or weed control at 1000 g/ha ([3]; pre-emergence, Preemergence) of the same compound?
Answer: 0%

Question: What about the pest or weed control at 1000 g/ha ([4]; post-emergence, Postemergence) of the same compound?
Answer: 0%

Question: And the pest or weed control at 1000 g/ha ([4]; pre-emergence, Preemergence)?
Answer: 0%

Question: What about the pest or weed control at 1000 g/ha ([5]; post-emergence, Postemergence) of the same compound?
Answer: 100%

Question: What about the pest or weed control at 1000 g/ha ([5]; pre-emergence, Preemergence) of the same compound?
Answer: 90%

Question: What about the pest or weed control at 1000 g/ha ([6]; post-emergence, Postemergence) of the same compound?
Answer: 100%

Question: What about the pest or weed control at 1000 g/ha ([6]; pre-emergence, Preemergence) of the same compound?
Answer: 0%

Question: What about the plant injury at 1000 g/ha ([7]; post-emergence, Postemergence) of the same compound?
Answer: 0%

Question: What about the plant injury at 1000 g/ha ([7]; pre-emergence, Preemergence) of the same compound?
Answer: 0%

Question: What about the pest or weed control at 62 g/ha [8, 13] of the same compound?
Answer: 0%

Question: What about the pest or weed control at 125 g/ha [8, 13] of the same compound?
Answer: 0%

Question: And the pest or weed control at 250 g/ha [8, 14]?
Answer: 0%

Question: And the pest or weed control at 62 g/ha [8, 15]?
Answer: 0%

Question: What about the pest or weed control at 125 g/ha [8, 15] of the same compound?
Answer: 0%

Question: What about the pest or weed control at 250 g/ha ([8]; pre-emergence, Preemergence) of the same compound?
Answer: 0%

Question: And the pest or weed control at 500 g/ha [8, 16]?
Answer: 0%

Question: What about the pest or weed control at 31 g/ha [9, 17] of the same compound?
Answer: 0%

Question: And the pest or weed control at 62 g/ha [9, 17]?
Answer: 0%

Question: And the pest or weed control at 125 g/ha [9, 17]?
Answer: 5%

Question: And the pest or weed control at 250 g/ha [9, 14]?
Answer: 5%

Question: And the pest or weed control at 62 g/ha [9, 18]?
Answer: 0%

Question: And the pest or weed control at 125 g/ha [9, 18]?
Answer: 0%

Question: What about the pest or weed control at 250 g/ha ([9]; pre-emergence, Preemergence) of the same compound?
Answer: 5%

Question: And the pest or weed control at 500 g/ha [9, 16]?
Answer: 10%

Question: And the pest or weed control at 31 g/ha [10, 19]?
Answer: 0%

Question: And the pest or weed control at 62 g/ha [10, 19]?
Answer: 0%

Question: What about the pest or weed control at 125 g/ha [10, 19] of the same compound?
Answer: 0%

Question: What about the pest or weed control at 250 g/ha [10, 14] of the same compound?
Answer: 0%

Question: And the pest or weed control at 62 g/ha [10, 20]?
Answer: 0%

Question: And the pest or weed control at 125 g/ha [10, 20]?
Answer: 0%

Question: What about the pest or weed control at 250 g/ha ([10]; pre-emergence, Preemergence) of the same compound?
Answer: 0%

Question: What about the pest or weed control at 500 g/ha [10, 16] of the same compound?
Answer: 0%

Question: What about the pest or weed control at 62 g/ha [11, 21] of the same compound?
Answer: 20%

Question: What about the pest or weed control at 125 g/ha [11, 21] of the same compound?
Answer: 35%

Question: What about the pest or weed control at 250 g/ha [11, 14] of the same compound?
Answer: 90%

Question: And the pest or weed control at 62 g/ha ([11]; pre-emergence, Preemergence, read-out: Plant response rating, Ragweed)?
Answer: 50%

Question: What about the pest or weed control at 250 g/ha ([11]; pre-emergence, Preemergence) of the same compound?
Answer: 75%

Question: And the pest or weed control at 500 g/ha [11, 16]?
Answer: 100%

Question: And the pest or weed control at 62 g/ha [12, 22]?
Answer: 0%

Question: And the pest or weed control at 125 g/ha [12, 22]?
Answer: 0%

Question: And the pest or weed control at 250 g/ha [12, 14]?
Answer: 0%

Question: What about the pest or weed control at 62 g/ha [12, 23] of the same compound?
Answer: 0%

Question: What about the pest or weed control at 125 g/ha [12, 23] of the same compound?
Answer: 0%

Question: And the pest or weed control at 250 g/ha ([12]; pre-emergence, Preemergence)?
Answer: 0%

Question: What about the pest or weed control at 500 g/ha [12, 16] of the same compound?
Answer: 0%

Question: How did the pest or weed control at 1000 g/ha ([1]; post-emergence, Postemergence) turn out when `CCn1cc(C(=O)c2ccccc2)c(-c2cc(Cl)cc(Cl)c2)n1` [Compound 31, [3-(3,5-dichlorophenyl)-1-ethyl-1H-pyrazol-4-yl]phenylmethanone] was run?
Answer: 20%

Question: What about the pest or weed control at 1000 g/ha ([1]; pre-emergence, Preemergence) of the same compound?
Answer: 0%

Question: What about the plant injury at 1000 g/ha (corn (Zea mays); post-emergence, Postemergence) of the same compound?
Answer: 10%

Question: What about the plant injury at 1000 g/ha (corn (Zea mays); pre-emergence, Preemergence) of the same compound?
Answer: 0%

Question: What about the pest or weed control at 1000 g/ha ([2]; post-emergence, Postemergence) of the same compound?
Answer: 0%

Question: And the pest or weed control at 1000 g/ha ([2]; pre-emergence, Preemergence)?
Answer: 0%

Question: What about the pest or weed control at 1000 g/ha ([3]; post-emergence, Postemergence) of the same compound?
Answer: 0%

Question: And the pest or weed control at 1000 g/ha ([3]; pre-emergence, Preemergence)?
Answer: 0%

Question: And the pest or weed control at 1000 g/ha ([4]; post-emergence, Postemergence)?
Answer: 0%

Question: What about the pest or weed control at 1000 g/ha ([4]; pre-emergence, Preemergence) of the same compound?
Answer: 0%

Question: And the pest or weed control at 1000 g/ha ([5]; post-emergence, Postemergence)?
Answer: 100%

Question: What about the pest or weed control at 1000 g/ha ([5]; pre-emergence, Preemergence) of the same compound?
Answer: 100%

Question: And the pest or weed control at 1000 g/ha ([6]; post-emergence, Postemergence)?
Answer: 90%

Question: And the pest or weed control at 1000 g/ha ([6]; pre-emergence, Preemergence)?
Answer: 70%

Question: What about the plant injury at 1000 g/ha ([7]; post-emergence, Postemergence) of the same compound?
Answer: 0%

Question: What about the plant injury at 1000 g/ha ([7]; pre-emergence, Preemergence) of the same compound?
Answer: 0%

Question: What about the pest or weed control at 16 g/ha [8, 24] of the same compound?
Answer: 0%

Question: What about the pest or weed control at 62 g/ha [8, 13] of the same compound?
Answer: 0%

Question: And the pest or weed control at 125 g/ha [8, 13]?
Answer: 0%

Question: And the pest or weed control at 16 g/ha [9, 24]?
Answer: 0%

Question: And the pest or weed control at 31 g/ha [9, 17]?
Answer: 0%

Question: And the pest or weed control at 62 g/ha [9, 17]?
Answer: 0%

Question: And the pest or weed control at 125 g/ha [9, 17]?
Answer: 5%

Question: What about the pest or weed control at 16 g/ha [10, 24] of the same compound?
Answer: 5%

Question: What about the pest or weed control at 31 g/ha [10, 19] of the same compound?
Answer: 5%

Question: And the pest or weed control at 62 g/ha [10, 19]?
Answer: 5%

Question: What about the pest or weed control at 125 g/ha [10, 19] of the same compound?
Answer: 5%

Question: And the pest or weed control at 16 g/ha [11, 24]?
Answer: 0%

Question: And the pest or weed control at 62 g/ha [11, 21]?
Answer: 0%

Question: What about the pest or weed control at 125 g/ha [11, 21] of the same compound?
Answer: 5%

Question: And the pest or weed control at 16 g/ha [12, 24]?
Answer: 0%

Question: And the pest or weed control at 62 g/ha [12, 22]?
Answer: 5%

Question: And the pest or weed control at 125 g/ha [12, 22]?
Answer: 5%
